Assay results taken from paper PMC10385416, “Iron-Gallic Acid Peptide Nanoparticles as a Versatile Platform for Cellular Delivery with Synergistic ROS Enhancement Effect” (Pharmaceutics, 2023).
Ends that are not written are not given here. Peptide text beside a SMILES is read from it.

Assays:
[1] = Methylene blue assay of HO• production (Fenton reaction); conditions: pH 4, H2O2, same Fe content (36 µg Fe3+), UV-Vis every 5 min over 6 h
Protocol: MB assays were used to measure the HO^• production efficacy of IGPNs. IGPNs (36 µg Fe^3+) were mixed with MB (1.5 mL, 10 µg L^−1) and H2O2 (1 mL), and H2O was added to a final volume of 3 mL. The absorbance at 664 nm was recorded with a Cary 3500 UV–Vis Spectrophotometer every 5 min over 6 h.
To verify the hypothesized Fenton reaction of IGPNs, H2O2 was used as a source of hydroxyl radicals (HO^•) and to simulate the tumor microenvironment. The generation of HO^• and degradation of methylene blue (MB) upon exposure to H2O2 and different samples adjusted to the same Fe content (IGPNs or FeCl3 solution) was monitored by UV–Vis spectrometry. At pH 4 (Figure 7A), the decrease of absorbance at 664 nm was accelerated in the presence of Fe-A4**, FePVP-A4**, or Fe^3+. At the favorable acidic pH, no differences in reaction rates were observed between IGPNs and Fe^3+, since the content of Fe^3+ is obviously sufficient to drive the reaction under these conditions. In contrast, at pH 7.4, the absorbance decline was clearly more pronounced in case of IGPNs (Figure 7B). This phenomenon could be explained by an accelerated conversion of Fe^3+ to Fe^2+ in the presence of GA.

[2] = tested on: HeLa cells; test: Cell viability (CellTiter-Glo assay), HeLa; format: cell-based, human; conditions: 10 μM, 72 h
Protocol: The CellTiter-Glo® Luminescent Cell Viability Assay was performed to determine the viability of HeLa or N2a cells after treatment with IGPNs or the individual components. One day prior to the treatments, HeLa or N2a cells were seeded into 96-well plates at a density of 5000 cells/well. On the next day, the medium in each well was replaced with 90 μL of fresh medium, and 10 μL of nanoparticles or control solutions (free peptides, Fe, FePVP) was added to each well corresponding to the specified final concentrations of the peptide or Fe^3+, respectively. The supernatant was removed after 72 h incubation, and 25 µL of medium as well as 25 µL of CellTiter-Glo reagent were added to each well. The plate was gently agitated for 30 min at RT, and the luminescence signal (relative light units, RLU) was recorded by a Centro LB 960 plate reader luminometer (Berthold Technologies, Bad Wildbad, Germany). The relative cell viability (in percentage) was calculated relative to control wells treated with HBG buffer as ([RLU] test/[RLU] control) × 100%. All experiments were performed in triplicate.

O.O.O.O.O.O.[Cl-].[Cl-].[Cl-].[Fe+3] [Fe^3+, iron (III) chloride hexahydrate]
decrease of methylene blue absorbance at 664 nm (HO• generation) at pH 4 [1]: accelerated

NCCCC[C@H](NC(=O)[C@@H]1CCCN1C(=O)[C@@H](N)CCC(N)=O)C(=O)O [SIO] (H-Gln-Pro-Lys-OH)
cytotoxicity / tolerability in words [2]: not able to mediate significant cytotoxicity

AVPIAQK [AVP]
cytotoxicity / tolerability in words [2]: not able to mediate significant cytotoxicity
